Publication PMC9698483, “Berbamine Reduces Chloroquine-Induced Itch in Mice through Inhibition of MrgprX1” (International Journal of Molecular Sciences, 2022)

Legend:
[1] = tested on: ERK1/2 phosphorylation through MrgprX1; assay: Immunoblot of ERK1/2 phosphorylation in HEK293T cells expressing MrgprX1; assay type: cell-based, human; conditions: HEK-MrgprX1 cells, 10 μM BBM for 10 min prior to CQ
[2] = tested on: CQ-resistant strain of P. falciparum; parameters: method as in doi:10.1002/ddr.430300405; conditions: in vitro, compound alone; read-out: IC50 antimalaria effect, CQ-resistant strain; cited from earlier work

In the case of `COc1cc2c3cc1Oc1c(OC)c(OC)cc4c1[C@@H](Cc1ccc(O)c(c1)Oc1ccc(cc1)C[C@@H]3N(C)CC2)N(C)CC4` [berbamine], the “effect on CQ-induced ERK1/2 phosphorylation” value [1] is listed as “significantly reduced” and the IC50 [2] is listed as 359 ± 9 nM.
